Test results reported in US20090005435A1, “Novel Compounds, Pharmaceutical Compositions Containing Same, and Methods of Use for Same” (priority 2004, published 2009).
≈ marks a conversion by molar mass, not a printed value. Where “and” joins values, the source holds several entries; their conditions need not be identical. Equal values may be shown once.

What was measured:
[1] = tested on: (O); assay: XTT cytotoxicity assay (O); format: cell-based; settings: read-out: XTT (IC50) (O)
Description: The XTT assay is a non-radioactive alternative for the [^51Cr] release cytotoxicity assay. XTT is a tetrazolium salt that is reduced to a formazan dye only by metabolically active, viable cells. The reduction of XTT is measured spectrophotometrically as OD490-OD650.
After 72 hours of incubation, cells are incubated for 4 hours with the XTT reagent as per manufacturer's instructions (Cell Proliferation Kit II (XTT) Roche). Plates are read at OD490 and OD650 on a Molecular Devices SpectraMax Plus Spectrophotometer. Three wells containing the XTT reagent without cells serve as the plate blank. XTT data are reported as OD490-OD650. Averages and standard error of the mean are computed using SOFTmax Pro software ([…]).
The IC50 for the compounds is defined as the concentration of drug leading to a 50% reduction in OD490-OD650 compared to controls. The OD490-OD650 are computed by the SOFTmax PRO software (Molecular Devices) for each compound concentration. IC50 is calculated by linear regression, plotting the FAS activity as percent of control versus drug concentrations. Linear regression, best-fit line, r^2, and 95% confidence intervals are determined using Prism Version 3.0 (Graph Pad Software).

[2] = Weight loss screen; format: in vivo, Balb/C mice; settings: 60 mg/kg
Description: Weight Loss Screen for Novel FAS Inhibitors Balb/C mice (Jackson Labs) are utilized for the initial weight loss screening. Animals are housed in temperature and 12 hour day/night cycle rooms and fed mouse chow and water ad lib. Three mice are utilized for each compound tested with vehicle controls in triplicate per experiment. For the experiments, mice are housed separately for each compound tested three mice to a cage. Compounds are diluted in DMSO at 10 mg/ml and mice are injected intraperitoneally with 60 mg/kg in approximately 100 μl of DMSO or with vehicle alone. Mice are observed and weighed daily; average weights and standard errors are computed with Excel (Microsoft). The experiment continues until treated animals reach their pretreatment weights. Select compounds are tested in animals housed in metabolic cages. Dosing of animals are identical to the screening experiments with three animals to a single metabolic cage. Animal weights, water and food consumption, and urine and feces production are measured daily.

[3] = tested on: fatty acid oxidation; assay: β-Oxidation assay, isolation of acid soluble products; format: cell-based; parameters: Beta Oxidation: unit not given here; settings: for FAO MAx: maximal fatty acid oxidation, at the concentration given under E32
Description: β-Oxidation Assay—Isolation of Acid Soluble Products A 24 well plate with 1 ml per well was prepared with 2.5×10^5 cells/well. The cells were incubated O/N. The next day, a solubilized palmitate solution was prepared. 50 μls of (1-^14C) Palmitic acid was added to a 2 ml centrifuge tube and dried under nitrogen gas. 2 mls of α-CD (α-Cyclodextran)-10 mg/ml in 10 mM Tris were added. This solution was incubated in a 37° C. water bath for 30 minutes. A hot mix was prepared by adding 25 μls of this solution to 2.5 μls of 200 μM Carnitine and 222.5 μls of serum free medium that is used for cells. The cells were then treated with the test compound in triplicate, and incubated at 37° C. for 60 minutes. The medium was removed and 250 μls of the hot mix were added. The test compound was added again, and further incubated at 37° C. for 60 minutes. The reaction was stopped with 50 μls of 2.6 N HClO4. The contents of the plate were transferred to a 1.5 ml centrifuge tube, and 50 μls of 4N KOH were then added, and the tube incubated in a 60° C. water bath for 30 min. Sodium acetate (1M, 75 μls) and sulfuric acid (3N, 50 μls) were added to the solution and vortexed. The tube was spun for 7 minutes at 1000 rpm at room temperature. A portion (225 μls) was removed, and the following were added (vortex after each addition, twice at the end): 938 μls of 1:1 Chloroform:Methanol; 468 μls of Chloroform; 281 μls distilled Water. The tubes were spun at 1000 rpm for 5 minutes. The upper phase was removed into a large glass scintillation vial and 5 mls of Budget solvent (scintillation liquid) was added. The tubes were well vortexed. Finally, C14 was counted for one minute.

| Compound | IC50 [1] | Weight Loss ([2]; day 1) | Beta Oxidation ([3]; 1.25 ug/ml) | Beta Oxidation ([3]; 2.5 ug/ml) | Beta Oxidation ([3]; 5 ug/ml) | Beta Oxidation ([3]; 10 ug/ml) | Beta Oxidation ([3]; 20 ug/ml) | Beta Oxidation ([3]; 40 ug/ml) | Weight Loss ([2]; day 2) | FAO MAx, concentration at maximum [3] | FAO SC 150 [3] | Beta Oxidation ([3]; 0.097 ug/ml) | Beta Oxidation ([3]; 0.39 ug/ml) | Beta Oxidation ([3]; 1.56 ug/ml) | Beta Oxidation ([3]; 6.25 ug/ml) | Beta Oxidation ([3]; 25 ug/ml) | Beta Oxidation ([3]; 100 ug/ml) | FAO MAx [3] |
| --- | --- | --- | --- | --- | --- | --- | --- | --- | --- | --- | --- | --- | --- | --- | --- | --- | --- | --- |
| C=CCC1(CC=C)C(=O)SC(C)(CCCCCCCC)C1=O (racemic) [Compound 4, 3,3-Diallyl-5-methyl-5-octyl-thiophene-2,4-dione] | 53.7 ± 1 µg/mL (≈ 167 µM) | 7.9% and 8.0% and 6.8% | 94 and 151 | 114 and 163 | 120 and 154 and 177 | 163 and 177 and 184 | 147 | 101 |  |  |  |  |  |  |  |  |  |  |
| CCCCCCCCCCC1(C)SC(=O)C(C)(C)C1=O (stereo not drawn) [Compound 12, 3,3,5-Trimethyl-5-decyl-thiophene-2,4-dione] | > 80 µg/mL |  |  |  |  |  |  |  | 60 mg/kg: 9.0% (day 2) | 1.56 µg/mL | 1.4 µg/mL | 100 | 120 | 154 | 141 | 75 | 68 | 154% |
| C=CCC1(CC=C)C(=O)SC(C)(CCCCCCCCCC)C1=O (stereo not drawn) [Compound 15, 3,3-Diallyl-5-methyl-5-decyl-thiophene-2,4-dione] | > 80 µg/mL |  |  |  |  |  |  |  | 60 mg/kg: 3.5% (day 2) | 25 µg/mL | 16.0 µg/mL | 105 | 114 | 127 | 138 | 165 | 150 | 165% |
